{"source": "patent US20040152747A1", "about": "“Thiazole compounds for treatment of neurodegenerative disorders” (Pfizer Inc, priority 2002, published 2004)", "tested_on": "gamma-secretase", "assay": "gamma-secretase activity in a solubilized membrane preparation (cell-free assay, McLendon et al.)", "format": "biochemical", "conditions": "read-out: IC50 activity for inhibiting gamma-secretase activity", "description": "The activity of compounds of the invention in inhibiting gamma-secretase activity was determined in a solubilized membrane preparation generally according to the description provided in McLendon et al. Cell-free assays for γ-secretase activity, The FASEB Journal (Vol. 14, December 2000, pp. 2383-2386).", "data": [{"smiles": "CCC(NC(=O)Cc1cc(F)cc(F)c1)C(=O)Nc1ncc(-c2ccc(Br)s2)s1", "note": "(stereo not shown) [Example 11, N-[5-(5-bromo-thiophen-2-yl)-thiazol-2-yl]-2-[2-(3,5-difluoro-phenyl)-acetylamino]-butyramide]", "values": [{"measurement": "IC50", "result": "~5", "unit": "µM"}]}]}
